Patent publication US6057153A, “Stabilized external guide sequences” (Yale University, priority 1997, dated 2000)
“Also recorded” adds a separate entry of the source.

What was measured:
[1] = Fetal Calf Serum Stability Assay; type: in vitro ADME; details: 10% heat-inactivated fetal calf serum, EGS about 5 μM
Protocol: Fetal Calf Serum Stability Assay: The nuclease resistance of modified EGS molecules were tested in a Fetal Calf Serum (FCS) Assay. It was reported by Shaw et al., Nucleic Acids Res. 19:747-750 (1991), that 10% FCS, when heated inactivated, mimics rather closely the human serum. The assay conditions were very similar to that previously described by Hoke et al., Nucleic Acids Res. 19:5743-5748 (1991). Briefly, an EGS analog to be tested was 5'-end labeled with T4 polynucleotide kinase and [γ-^35 S] ATP (this procedure can generate radiolabeled oligonucleotides which are resistant against dephosphorylation). The labeled EGS was then purified by phenol/chloroform extraction, followed by a Sephadex G-25 spin-column filtration. The purified EGS was mixed with cold EGS and 10% heat-inactivated fetal calf serum (FCS) so that the final concentration of EGS was about 5 μM. EGS analogues were treated over a period of 24 hours. Aliquots were withdrawn from the reaction mixture at different time points, mixed with 2× loading dye, heat inactivated at 90° C. for 3 min, then stored at -20° C. The results were analyzed on 12% polyacrylamide/7 M urea gels.

[2] = test system: 2.1 kb HBV RNA; experiment: RNAse P cleavage of large target RNA; type: biochemical; details: 250 nM EGS, 30 minutes at 37° C.
Protocol: To test cleavage with a longer target RNA molecules, different reaction conditions were used. Reactions in a total volume of 10 μl contained 40 mM Tris-HCl (pH 7.4), 10 mM MgCl2, 1 mM spermidine 10 mM dithiothreitol, 0.05 μg/μl nuclease-free bovine serum albumin, 0.01% (v/v) Triton-X100™, 0.8 Units/μl RNASIN, 0.2 mM ATP, 0.2 mM GTP, 0.2 mM UTP, 0.2 mM CTP, 0.1 μCi/μl [a^32 P] CTP, 2 mM m^7 G(5')pppG, 0.06 μg/μl yeast RNA, 25 mM KCl, 3 Units T7 RNA polymerase, 250 nM EGS, 1 μl of human RNAse P and 3 ng/μl linearized plasmid. Reactions were initiated by the addition of linearized plasmid and incubated for 30 minutes at 37° C. Reactions were terminated by the addition of 10 μl of 80% formaemide, 10 mM EDTA, 0.1% bromphenol blue. After heating for 2 minutes at 90° C., samples were electrophoresed for 2 hours at 48 watts on a 5% denaturing polyacrylamide gel. After vacuum drying for 1 hour at 60° C., the gel was analyzed by phosphoimaging.
Cleavage of Large Target RNA: Plasmid pAYW2.1, containing the sequence that encodes the 2.1 kb RNA of the AYW strain of HBV, was linearized by digestion with Not I, and then transcribed by T7 RNA polymerase in the presence of [α^32 P]CTP. Labeled transcripts were incubated for 30 minutes at 37° C. with RNase P in the presence of various EGS molecules. Reaction products were subjected to denaturing polyacrylamide gel electrophoresis, and analyzed by phosphoimaging. EGS-mediated cleavage at the targeted site of the 2.1 kb transcript produces cleavage products that are approximately 1.7 and 0.4 kb in length.

[3] = test system: short substrate (SEQ ID NO. 1) derived from the full-length pre-genomic HBV RNA; experiment: RNAse P cleavage assay, short substrate; type: biochemical; details: for efficiency of RNase P-mediated target cleavage relative to the wild-type EGS: short substrate, EGS 200 nM, 37° C., 1 hour
Protocol: RNAse P Cleavage Assays: Cleavage reactions were carried out generally according to the procedure described by Yuan et al., Proc. Natl. Acad. Sci., USA, 89:8006-8010, (1992), which is hereby incorporated by reference. Briefly, short substrate reactions were made up to a total volume of 31μ in 50 mM Tris-HCl pH 7.4, 10 mM MgCl2, 25 mM KCl, 0.1 mM EDTA, […] at 37° C. for 1 hour. After incubation, the reaction solution was mixed with loading buffer (98% formamide, 10 mM EDTA, 0.025% bromophenol blue). The cleaved substrate was separated from the uncleaved by electrophoresis on a 15% acrylamide gel containing 7 M urea. The bands were quantified on a Molecular Dynamics PHOSPHORIMAGER™.
The bands corresponding to the precursor RNA substrate and the resulting two cleavage products were counted from the dried gel using a BETASCOPE™ gel analyzer (Betagen).
RNAse P was purified by DEAE SEPHAROSE™ chromatography and glycerol density gradient centrifugation essentially as described by Bartkiewicz et al., Genes Dev. 3:488-499 (1989), which is hereby incorporated by reference.
The percentage of precursor RNA substrate remaining in either assay was plotted as function of the EGS concentration and the catalytic efficiency expressed as kcat /Km (where kcat is the rate constant of cleavage and Km is the Michaelis constant), the second order rate constant for the reaction of free EGS and substrate. Following the methods of Heidenreich and Eckstein (J. Biol. Chem., 267:1904-1909 (1992), the efficiency of the cleavage reaction, kcat /Km), was determined using the formula
The EGS constructs described in Example 2 were assayed using the RNAse P cleavage assays described in Example 1 to determine the efficiency of the cleavage reaction. FIG. 1 depicts the model system using a short substrate which was used to evaluate the ability of modified EGS molecules in inducing RNase P-mediated target cleavage. The sequence of the short substrate (SEQ ID NO. 1) was derived from the full-length pre-genomic HBV RNA.

[4] = test system: Substrate RNA (SUB-156); experiment: RNase P-mediated cleavage assay, single turnover conditions; type: biochemical, hepatitis B virus (HBV); details: 200 nM EGS, 20 nM substrate, saturating RNase P, 60 min
Protocol: RNase P-mediated cleavage assay--Human RNase P was purified from HeLa cells according to the published procedures (14). Substrate RNA (SUB-156, FIG. 24) was 5'-end labeled using T4 polynucleotide kinase and [γ-^32P]ATP. The labeling mixture was then heated to 85° C. for 1 min, diluted with RNase-free water, and purified by a MICROSPIN™ G-25 column (Pharmacia) according to the manufacturer's instructions. Cleavage reactions were conducted in a reaction buffer containing 50 mM Tris-HCl (pH 7.4), 25 mM KCl, 10 mM MgCl2 and 0.1 mM EDTA. EGS oligomers and ^32 p-5'-end-labeled RNA substrate were heated in the reaction buffer without MgCl2 to 85° C. for 1 min and then slowly cooled to room temperature. The cleavage reaction was initiated by adding 2 μl of 100 mM MgCl2 and 3 μl of RNase P (enzyme activity for this preparation: cleavage of 0.035 pmol of tRNA^Tyr precursor min^-1 μl^-1). The final reaction volume was 20 μl and the reaction was incubated at 37° C. for 60 min. […] For each sample, cleavage reactions were performed in duplicates and the average values were used. To ensure reproducibility, cleavage assays for each EGS were also repeated in two separate experiments. The all-RNA EGS-159 was used as the reference sample and its cleavage values were counted as 100%. Cleavage percentages of all other EGSs were normalized against EGS-159 (Rel. Cleavage %) except in FIG. 30 and FIG. 31 where absolute cleavage percentages (Abs. Cleavage %) were plotted.
For EGS-single turnover conditions, the final concentrations were 200 nM for EGS and 20(nM for the RNA substrate. For EGS-multiple turnover conditions, the final concentrations were 200 nM for the RNA substrate and 40 nM for EGS. When determination of the time-course was required, the reaction volume was increased to 40 μl. Aliquots of 5-8 μl were removed from the reaction mixture at different time points (e.g. 1, 5, 15, 30 and 60 min), quenched in formamide loading buffer, and loaded onto 15% polyacrylamide/8 M urea gels. Quantitation of the cleavage product and the remaining RNA substrate was achieved using a Molecular Dynamics PHOSPHORIMAGER™.
General considerations--To select lead nuclease-resistant oligonucleotide prototypes as external guide sequences among many possible modifications, a reliable yet rapid in vitro cleavage assay for routine screening was used. Human RNase P, a ribonucleoprotein, is composed of a 340-nt H1 RNA component and one or more proteins (for recent review, see Ref. 16). A 3-step screening strategy was devised: 1) All analogues once synthesized were tested by a fast qualitative cleavage assay under single turnover conditions with 10-fold excess of EGS over target RNA substrate for 60 min. […] This was the best cleavage condition used in this study. Any analogue with a reasonable activity (e.g. more than 5% cleavage) would not be missed, under these circumstances, due to the high detection sensitivity provided by PHOSPHORIMAGER™. 2) Promising analogues were then assayed for stability in 50% human serum.

[5] = Nuclease resistance studies in 50% human serum; type: in vitro ADME; details: 37° C., 24 h
Protocol: Nuclease resistance studies--100 μl of EGS oligonucleotides (5 μM), containing a trace of 5'-end-labeled oligomers, were incubated at 37° C. for different time periods (0-24 h) with 50% human serum (Sigma, S-7023). 20 μl aliquots were diluted to 100 μl with RNase-free water, phenol/chlorform extracted, and ethanol precipitated. The residue was resuspended in 10 μl of TE and 10 μl of 2× gel loading buffer containing 98% formamide, 10 mM1 EDTA and 0.1% bromophenol blue. The mixture was heated to 85° C. for 1 min, quickly cooled on ice and frozen at -20° C. prior to electrophoresis on 15% polyacrylamide/8 M urea gels. Gels were subsequently scanned on a Molecular Dynamics PHOSPHORIMAGER™, and the stability profile for each, oligomer was estimated from the ratio of the remaining intact materials versus all radio-labeled materials (intact oligomers plus degradation products). Stability studies of non radio-labeled EGS oligomers using capillary gel electrophoresis were also carried out according to the method of Leeds et al. (15).

[6] = test system: EGS/target RNA complex (SUB-156) with human RNase P; experiment: Measurements of kcat and A50; type: biochemical, hepatitis B virus (HBV)
Protocol: Measurements of kcat, Km and A50 --Measurements of these kinetic parameters were carried out using conditions similar to those described above (e.g. identical cleavage buffers). For kcat measurements, aliquots were taken every 30-60 s for the first 5 min. The logarithm of the percentage of cleavage (Abs. Cleavage %) was plotted against time, and the data points were fitted using a linear least-squaresanalysis. The slope represents kcat values. For Km measurements,a fixed amount of RNase P (0.6 μl) was used, while substrate concentrations (i.e. EGS/target RNA complex) varied from 25 to 500 nM. Several EGS/target RNA ratios were assayed including 1:1, 5:1 and 10:1. Attempts were made to obtain Km and Vmax values from linear Lineweaver-Burk or Eadie-Hofstee plots. The scattered values could not be fit as a hyperbolic function. For A50 measurements, the ratio between EGS and target RNA was kept as 10:1. Various amounts of RNase P (0.3 to 3 μl) were used to conduct a 60-min cleavage reaction. Percentage of cleavage was plotted against [RNase P] in μl, and 50% cleavage values (A50) were determined using a non-linear, least-squares routine (Kaleidagraph, Synergy Software). The amount of RNase P required to reach A50 was then converted to enzyme unit. 1 unit of RNase P represents the amount of RNase P that catalyzes the conversion of 1 pmol of tRNA^Tyr precursor to cleavage products per minute per μl of the enzyme preparation. 1 unit of RNase P preparation used for this study equals 28.57 μl.

Row | Substance | half-life in 10% FCS [1] | efficiency of RNase P-mediated target cleavage relative to the wild-type EGS [3] | RNase P-mediated cleavage activity compared to the all-RNA control [4] | other results
1 | INNO-155: SEQ ID NO. 3, 2'-O-methyl, phosphorothioate T loop, 2'-O-methyl phosphorothioate end caps (CGAUGAAGGUUCGAAUCCUUCCCAGGAC; 2'-O-methyl, phosphorothioate T loop and end caps, positions not given here) | more than 18 hours | capable of inducing an efficient target cleavage | – | RNase P-mediated cleavage of 2.1 kb HBV RNA [2]: capable of inducing RNase P-mediated cleavage; also recorded: partially cleaved
2 | INNO-139: SEQ ID NO. 3, variable loop deleted, 2'-O-methyl recognition sequences and T stem (CGAUGAAGGUUCGAAUCCUUCCCAGGAC; 2'-O-methyl modifications, chemistry not fully specified) | 2 h | much of the lost activity can be restored | – | turnover of EGS-mediated cleavage ([3]; EGS 20 nM, target 400 nM (20 fold excess)): do not significantly affects turnover
3 | EGS-398: lead prototype, U54 replaced with 2'-deoxyuridine, SEQ ID NO. 44 (guide AGAUGAUAGAAGGUUAGAAUCCUUCACGCCGC; 2'-deoxyuridine at tRNA position 54, rest of chemistry not given here) | – | – | promising | degradation in 50% human serum [5]: no degradation products were detected; A50 (amount of RNase P required to achieve 50% cleavage) ([6]; 60 min, EGS in 10-fold excess relative to the RNA target): 0.061 unit; kcat ([6]; single turnover, first 5 min): indistinguishable from that of the all-RNA control
4 | EGS-399: U54 replaced with riboadenosine, SEQ ID NO. 45 (AGAUGAUAGAAGGAUAGAAUCCUUCACGCCGC; guide RNA; Riboadenosine at tRNA position 54, rest of chemistry not given here) | – | – | promising | fraction degraded in 50% human serum [5]: 16%
5 | INNO-140: all-RNA EGS without variable loop, SEQ ID NO. 3, 28 nucleotides (CGAUGAAGGUUCGAAUCCUUCCCAGGAC; guide RNA; RNA, backbone not given here) | less than 10 minutes | – | – | –
